Laboratory results as given in patent US8119614B2, “Substitution derivatives of N6-benzyladenosine, methods of their preparation, their use for preparation of drugs, cosmetic preparations and growth regulators, pharmaceutical preparations, cosmetic preparations and growth regulators containing these compounds” (Ustav Experimentalni Botaniky Akademie Ved Ceske Republiky, priority 2002, dated 2012).

How the values were obtained:
HOS = assay: In vitro cytotoxic activity, Calcein AM assay, HOS; type: cell-based; conditions: 72 hours
[1] = tested on: human erythroleukaemia K562; assay: In vitro cytotoxic activity, Calcein AM assay, K-562; type: cell-based; conditions: 72 hours, read-out: IC 50 K-562
In short: (§1)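 Continuous 72 h drug exposure of cultured cells, followed by 1 h Calcein AM staining to count metabolically active cells; survival relative to untreated wells gave GI50.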

[2] = tested on: breast carcinoma cell lines MCF-7; assay: In vitro cytotoxic activity, Calcein AM assay, MCF7; type: cell-based, human; conditions: 72 hours, read-out: IC 50 MCF7
In short: as §1

mouse fibroblasts NIH3T3 = assay: In vitro cytotoxic activity, Calcein AM assay, NIH-3T3; type: cell-based; conditions: 72 hours, read-out: IC 50 NIH-3T3
In short: as §1

[3] = tested on: human malignant melanoma cells G361; assay: In vitro cytotoxic activity, Calcein AM assay, G-361; type: cell-based; conditions: 72 hours, read-out: IC 50 G-361
From the text: One of the parameters used, as the basis for cytotoxicity assays, is the metabolic activity of viable cells. For example, a microtiter assay, which uses the Calcein AM, is now widely used to quantitate cell proliferation and cytotoxicity. For instance, this assay is used in drug screening programs and in chemosensitivity testing. Because only metabolically active cells cleave Calcein AM, these assays detect viable cells exclusively. The quantity of reduced Calcein AM corresponds to the number of vital cells in the culture.
Human T-lymphoblastic leukemia cell line CEM; promyelocytic HL-60 and monocytic U937 leukemias; breast carcinoma cell lines MCF-7; cervical carcinoma cells HELA; mouse fibroblasts NIH3T3; human erythroleukaemia K562 and human malignant melanoma cells G361 were used for routine screening of compounds. The cells were maintained in Nunc/Corning 80 cm^2 plastic tissue culture flasks and cultured in cell culture medium (DMEM with 5 g/l glucose, 2 mM glutamine, 100 U/ml penicillin, 100 μg/ml streptomycin, 10% fetal calf serum and sodium bicarbonate).
The cell suspensions that were prepared and diluted according to the particular cell type and the expected target cell density (10^4 cells per well based on cell growth characteristics) were added by pipette (80 μl) into 96/well microtiter plates. Inoculates were allowed a pre-incubation period of 24 hours at 37° C. and 5% CO2 for stabilisation. Four-fold dilutions of the intended test concentration were added at time zero in 20 μl aliquots to the microtiter plate wells. Usually, test compound was evaluated at six 4-fold dilutions. In routine testing, the highest well concentration was 166.7 μM, but it can be the matter of change dependent on the agent. All drug concentrations were examined in duplicates. Incubations of cells with the test compounds lasted for 72 hours at 37° C., in 5% CO2 atmosphere and 100% humidity. At the end of incubation period, the cells were assayed by using the Calcein AM. Ten microliters of the stock solution were pipetted into each well and incubated further for 1 hours. Fluorescence (FD) was measured with the Labsystem FIA Reader Fluoroscan Ascent (UK). The tumour cell survival (GI50) was calculated using the following equitation: GI50=(FDdrug exposed well/mean FDcontrol wells)×100%. The GI50 value, the drug concentration lethal to 50% of the tumour cells, was calculated from the obtained dose response curves (FIG. 3).

[4] = tested on: Human T-lymphoblastic leukemia cell line CEM; assay: In vitro cytotoxic activity, Calcein AM assay, CEM; type: cell-based; conditions: 72 hours
In short: as §1

promyelocytic HL-60 = assay: In vitro cytotoxic activity, Calcein AM assay, HL60; type: cell-based, human; conditions: 72 hours, read-out: IC 50 HL60
In short: as §1

Human lymphocytes = assay: Immunosuppressive activity: concanavalin A induced lymphocyte proliferation, [^3H]-TdR incorporation; type: cell-based; conditions: 72 hours, read-out: Human lymphocytes ED50
Procedure: Human heparinized peripheral blood was obtained from healthy volunteers by cubital vein punction. The blood was diluted in PBS (1:3) and mononuclear cells were separated by centrifugation in Ficoll-Hypaque density gradient (Pharmacia, 1.077 g/ml) at 2200 rpm for 30 minutes. Following centrifugation, lymphocytes were washed in PBS and resuspended in cell culture medium (RMPI 1640, 2 mM glutamine, 100 U/ml penicillin, 100 μg/ml streptomycin, 10% fetal calf serum and sodium bicarbonate).
The cells were diluted at target density of 1,100,000 cells/ml were added by pipette (180 μl) into 96/well microtiter plates. Four-fold dilutions of the intended test concentration were added at time zero in 20 μl aliquots to the microtiter plate wells. Usually, test compound was evaluated at six 4-fold dilutions. In routine testing, the highest well concentration was 266.7 μM. All drug concentrations were examined in duplicates. All wells with exception of unstimulated controls were activated with 50 μl of concanavalin A (25 μg/ml). Incubations of cells with test compounds lasted for 72 hours at 37° C., in 5% CO2 atmosphere and 100% humidity. At the end of incubation period, the cells were assayed by using the [^3H]-TdR:
Cell cultures were incubated with 0.5 μCi (20 μl of stock solution 500 μCi/ml) per well for 6 hours at 37° C. and 5% CO2. The automated cell harvester was used to lyse cells in water and adsorb the DNA onto glass-fiber filters in the format of microtiter plate. The DNA incorporated [^3H]-TdR was retained on the filter while unincorporated material passes through. The filters were dried at room temperature overnight, sealed into a sample bag with 10-12 ml of scintillant. The amount of [^3H]-TdR present in each filter (in cpm) was determined by scintillation counting in a Betaplate liquid scintillation counter. The effective dose of immunosuppressant (ED) was calculated using the following equation: ED=(CCPMdrug exposed well/mean CCPMcontrol wells)×100%. The ED50 value, the drug concentration inhibiting proliferation of 50% of lymphocytes, was calculated from the obtained dose response curves.

[5] = tested on: human diploid fibroblasts (HCA cells); assay: Inhibition of senescence of mammal cells: β-galactosidase staining of senescent cells; type: cell-based; conditions: for Senescent cells (%) HCA25: passage 25; for Senescent cells (%) HCA45: passage 45; for Senescent cells (%) HCA80: passage 80
Procedure: In this example, human diploid fibroblasts (HCA cells with different levels of passage: passage 25—labelling HCA25; passage 45—labelling HCA45; passage 80—labelling HCA80) were used for studying β-galactosidase activity. Medium used for cells cultivation was removed, cells were washed twice with PBS and fixed in 2-3 ml of fixation agent consisting of 2% of formaldehyde and 0.2% of flutaraldehyde in PBS. Cells were incubated at room temperature for 5 min and subsequently washed twice with PBS. Cells were then incubated at 37° C. (without CO2) for 1 to 16 hours in 2-3 ml of solution comprising potassium ferricyanide (5 mM), potassium ferrocyanide (5 mM), MgCl2 (2 mM), X-gal (5-bromo-4-chloro-3-indolyl-β-D-galactopyranoside) (1 mg/ml) in citrate/phosphate buffer, pH 6.0. […] In this experiment only senescent cells were labelled due to the effect of β-galactosidase on the substrate.

[6] = tested on: Triticum aestivum cv. Hereward; assay: Senescence inhibition on winter wheat leaf segments (chlorophyll retention); type: in vivo; conditions: for Concentration with highest activity: chlorophyll retention in excised wheat leaf tips, 96 h dark; for Activity (%) [10^−4 mol · l^−1 BAP = 100%]: chlorophyll retention, at concentration with highest activity
In short: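 Tip segments of the first leaf from 7-day wheat seedlings held, basal ends down, in cytokinin solutions (10^−8M to 10^−4M) for 96 h at 25° C in darkness. Chlorophyll extracted in 80% ethanol at 80° C, read at 665 nm; activity at best concentration given relative to 10^−4 M BAP (100%), means of five replicates.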

[7] = tested on: tobacco callus Nicotiana tabacum L. cv. Wisconsin 38; assay: Growth of cytokinin-dependent tobacco callus; type: cell-based; conditions: for Activity (%) [10^−5 mol · l^−1 BAP = 100%]: callus growth, at concentration with highest activity; for Concentration with highest activity: fresh callus weight after four weeks
Procedure: Cytokinin-dependent tobacco callus Nicotiana tabacum L. cv. Wisconsin 38 was maintained at 25° C. in darkness on modified Murashige-Skoog medium, containing per 1 liter: 4 μmol nicotinic acid, 2.4 μmol pyridoxine hydrochloride, 1.2 μmol thiamine, 26.6 μmol glycine, 1.37 μmol glutamine, 1.8 μmol myo-inositol, 30 g of sucrose, 8 g of agar, 5.37 μmol α-naphtylacetic acid (NAA) and 0.5 μmol benzylaminopurine (BAP). Subcultivation was carried out every three weeks. Fourteen days before the bioassay, the callus tissue was transferred to the media without 6-benzylaminopurine (BAP). Biological activity was determined from the increase in fresh callus weight after four weeks of cultivation. Five replicates were prepared for each cytokinin concentration and the entire test was repeated twice. From the obtained data, the concentration with highest activity was selected for each compound tested. Relative activity of the compound at this concentration was calculated (Tab. 6). […] The cytokinins to be tested were dissolved in dimethylsulfoxide (DMSO) and the solution brought up to 10^−3M with distilled water. This stock was further diluted in the respective media used for the biotest to concentrations ranging from 10^−8M to 10^−4M.

[8] = tested on: Amaranthus caudatus cotyledon/hypocotyl explants; assay: Amaranthus bioassay (betacyanin content); type: in vivo; conditions: for Concentration with highest activity: 48 h dark; for Activity (%) [10^−5 mol · l^−1 BAP = 100%]: at concentration with highest activity
In short: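 Surface-sterilised Amaranthus caudatus var. atropurpurea seeds were germinated 72 h at 25° C. in darkness, then de-rooted. Cotyledon/hypocotyl explants (20 per dish) were incubated under green safe light on filter paper with 1 ml medium of 10 μmol NA2HPO4-KH2PO4, pH 6.8, 5 μmol tyrosine and cytokinin (10^-8M to 10^-4M) for 48 h at 25° C. in darkness. Betacyanin was extracted in […] acetic acid and measured by absorbance at 537 nm and 620 nm.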

Compound OC[C@H]1O[C@@H](n2cnc3c(NCc4ccccc4O)ncnc32)[C@H](O)[C@@H]1O [2-hydroxybenzylamino, 6-(2-hydroxybenzylamino)purine riboside] has an IC50 (HOS) of 2.8 µM, an IC50 [1] of 88 µM and an IC50 [2] of 11.4 µM. For the same compound, the IC50 (mouse fibroblasts NIH3T3) was 43.2 µM, the IC50 [3] was over 167 µM and the IC50 [4] was 0.7 µM. The IC50 (promyelocytic HL-60) was 0.42 µM and the EC50 (Human lymphocytes) was 4.8 µM.
OC[C@H]1O[C@@H](n2cnc3c(NCc4cccc(O)c4)ncnc32)[C@H](O)[C@@H]1O [3-hydroxybenzylamino, 6-(3-hydroxybenzylamino)purine riboside] was tested, and the IC50 (HOS) was over 167 µM, the IC50 [1] was over 167 µM and the IC50 [2] was over 167 µM. For the same compound, the IC50 (mouse fibroblasts NIH3T3) was over 167 µM, the IC50 [3] was over 167 µM and the IC50 [4] was 51.9 µM. For the same compound, the IC50 (promyelocytic HL-60) was 23.7 µM and the EC50 (Human lymphocytes) was 10.7 µM.
For COc1ccc(CNc2ncnc3c2ncn3[C@@H]2O[C@H](CO)[C@@H](O)[C@H]2O)c(O)c1 [2-hydroxy-4-methoxybenzylamino, 6-(2-hydroxy-4-methoxybenzylamino)purine riboside], the EC50 (Human lymphocytes) was 1.5 µM.
c1coc(CNc2ncnc3[nH]cnc23)c1 [Kinetin, reference compound] was tested, and the “Senescent cells (%) HCA25” value [5] was 3%, the “Senescent cells (%) HCA45” value [5] was 5% and the “Senescent cells (%) HCA80” value [5] was 25%.
Work on COc1ccc(CNc2ncnc3c2ncn3[C@@H]2O[C@H](CO)[C@@H](O)[C@H]2O)cc1 [4-methoxybenzylamino, 6-(4-methoxybenzylamino)purine riboside] yielded an IC50 (HOS) of over 167 µM, an IC50 [1] of over 167 µM and an IC50 [2] of over 167 µM. It also gave an IC50 (mouse fibroblasts NIH3T3) of over 167 µM, an IC50 [3] of 115 µM and an IC50 [4] of over 167 µM. For the same compound, the IC50 (promyelocytic HL-60) was over 167 µM, the “Concentration with highest activity” value [6] was 10^−4 mol · l^−1 and the “Activity (%) [10^−4 mol · l^−1 BAP = 100%]” value [6] was 110 ± 9%. The “Activity (%) [10^−5 mol · l^−1 BAP = 100%]” value [7] was 2 ± 2%, the “Concentration with highest activity” value [7] was 10^−6 mol · l^−1 and the “Concentration with highest activity” value [8] was 10^−4 mol · l^−1. The “Activity (%) [10^−5 mol · l^−1 BAP = 100%]” value [8] was 17 ± 8%.
For OC[C@H]1O[C@@H](n2cnc3c(NCc4ccc(O)c(O)c4)ncnc32)[C@H](O)[C@@H]1O [3,4-dihydroxybenzylamino, 6-(3,4-dihydroxybenzylamino)purine riboside], the EC50 (Human lymphocytes) was 8.3 µM, the “Concentration with highest activity” value [8] was 10^−4 mol · l^−1 and the “Activity (%) [10^−5 mol · l^−1 BAP = 100%]” value [8] was 8 ± 3%.
For OC[C@H]1O[C@@H](n2cnc3c(NCc4cccc(Cl)c4O)ncnc32)[C@H](O)[C@@H]1O [2-hydroxy-3-chlorobenzylamino, 6-(2-hydroxy-3-chlorobenzylamino)purine riboside], the IC50 (HOS) was over 167 µM, the IC50 [1] was 10.7 µM and the IC50 [2] was 15 µM. The IC50 (mouse fibroblasts NIH3T3) was over 167 µM, the IC50 [3] was 128 µM and the IC50 [4] was 0.3 µM. For the same compound, the IC50 (promyelocytic HL-60) was 0.1 µM and the EC50 (Human lymphocytes) was 2.1 µM.
COc1cccc(CNc2ncnc3c2ncn3[C@@H]2O[C@H](CO)[C@@H](O)[C@H]2O)c1OC [2,3-dimethoxybenzylamino, 6-(2,3-dimethoxybenzylamino)purine riboside] was tested, and the “Senescent cells (%) HCA25” value [5] was 4%, the “Senescent cells (%) HCA45” value [5] was 5% and the “Senescent cells (%) HCA80” value [5] was 18%. The IC50 (HOS) was over 167 µM, the IC50 [1] was over 167 µM and the IC50 [2] was over 167 µM. For the same compound, the IC50 (mouse fibroblasts NIH3T3) was over 167 µM, the IC50 [4] was over 167 µM and the IC50 (promyelocytic HL-60) was 109 µM. The “Concentration with highest activity” value [6] was 10^−4 mol · l^−1, the “Activity (%) [10^−4 mol · l^−1 BAP = 100%]” value [6] was 106 ± 17% and the “Activity (%) [10^−5 mol · l^−1 BAP = 100%]” value [7] was 5 ± 2%. For the same compound, the “Concentration with highest activity” value [7] was 10^−6 mol · l^−1, the “Concentration with highest activity” value [8] was 10^−4 mol · l^−1 and the “Activity (%) [10^−5 mol · l^−1 BAP = 100%]” value [8] was 21 ± 7%.
For OC[C@H]1O[C@@H](n2cnc3c(Nc4cccc(Cl)c4)ncnc32)[C@H](O)[C@@H]1O [3-chloroanilino], the “Senescent cells (%) HCA25” value [5] was 4%, the “Senescent cells (%) HCA45” value [5] was 4% and the “Senescent cells (%) HCA80” value [5] was 27%.
For Nc1cc(CNc2ncnc3c2ncn3[C@@H]2O[C@H](CO)[C@@H](O)[C@H]2O)ccc1Cl [3-amino-4-chlorobenzylamino, 6-(3-amino-4-chlorobenzylamino)purine riboside], the “Senescent cells (%) HCA25” value [5] was 4%, the “Senescent cells (%) HCA45” value [5] was 6% and the “Senescent cells (%) HCA80” value [5] was 22%.
